# Settings: transdermal, 12 subjects
# Experimental: Specifically, a single site, open label study was conducted on 12 subjects, with 4-way cross-over. Four (4) patches were applied for 2, 4, or 12 hours.
smiles,measurement,value
CCN(CC)CC(=O)Nc1c(C)cccc1C [lidocaine],"rate of delivery, heated patch versus unheated patch",more rapidly

# — US9186334B2 (Nuvo Research Inc., priority 2009, dated 2015)
